Counter-ions that a name gives are not always drawn.
Tests used:
[1] = tested on: RBL2H3 cells; assay: Degranulation assay: β-hexosaminidase release during immune complex mediated degranulation; type: cell-based, rat; conditions: Rattus norvegicus, RBL-2H3, Assay Protocol B (96 well format); for inhibition at 1 µM: read-out: Degranulation % inhibition at 1 μM; for EC50: read-out: Degranulation EC50
Method: The objective of this assay was to examine by Fluorescence method the effect of compounds on β-hexosaminidase release during immune complex mediated degranulation in RBL2H3 cells. Compounds were tested for their ability to inhibit the ability of this immune complex to mediate β-hexosaminidase release, in an enzyme assay with […] as substrate. […] Emission 460 nm). [table] [table] RBL2H3 cells were maintained in MEM complete media containing 10% FBS at 70%-80% confluence in a mammalian cell culture CO2 incubator with 5% CO2 at 37° C. 2×10^5 cells/well were plated in 1 mL of complete media and incubated for 5 hours for cell attachment. Complete media was replaced with 1 mL of serum free MEM media containing 1.2 μg/mL of anti-DNP rat IgE as sensitizing agent and further incubated overnight with 5% CO2 at 37° C. […] Cells were further stimulated with 5 μg/mL of DNP-BSA for 60 minutes. Plates were centrifuged for 5 minutes at 1000 rpm and 25 μL of culture supernatant was transferred from each assay well into a 96 well black coated plate. 25 μL β-NAG substrate was added to this mixture and incubated at room temperature for 30 minutes. The reaction was terminated with 100 μL of stop solution and fluorescence was monitored. (Excitation 355 nm; Emission 460 nm) See, Sanderson, (2010), Cellular Immunology, 262(1): 28-34 and Silverman, (2006) MCB, 26(5):1826-1838, which are incorporated herein by reference. The % release of β-Hexosaminidase for the test compound was calculated using the following formula: RBL2H3 cells were maintained in MEM complete media containing 10% FBS at 70-80% confluence in a mammalian cell culture CO2 incubator with 5% CO2 at 37° C. 5×10^4 cells/well were plated in 200 μL of complete media containing 0.3 μg/mL of anti-DNP rat IgE as sensitizing agent for 24 hours at 37° C. & 5% CO2. The following day, cells were washed twice with PIPES buffer for 10 minutes at 37° C. and replenished with serum free MEM media. Cells were treated with various concentrations of test compounds (in 0.5% DMSO) for 15 minutes at 37° C. and 5% CO2. The cells were further stimulated with 0.1 μg/mL of DNP-BSA for 45 minutes. The plates were spun for 5 minutes at 2000 rpm and 25 μL of culture supernatant was then transferred from each assay well into a 96 well black coated plate. […] β-NAG substrate was added and incubated at RT for 30 minutes. After incubation with substrate, 150 μL of stop solution was added and fluorescence was monitored. (Excitation 355 nm; Emission 460 nm). See, Yamamoto, JPET, 306(3):1174-1181 (2003) and Taylor, MCB, 15(8): 4149-4157 (1995), which are herein incorporated by reference. Release of β-hexosaminidase during the degranulation process by immune complex mediated FcεRI stimulation is through the SYK pathway. The % inhibition of β-hexosaminidase release by Syk inhibitor gives information with regard to its Syk inhibition potency.

[2] = target: Syk (356-635 amino acids) catalytic domain (Homo sapiens (Human), UniProt P43405); assay: Inhibition of enzymatic Syk kinase activity (radiometric); type: biochemical; conditions: read-out: IC50 Syk
Procedure, shortened: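 Radiometric filter-binding format: 32P transfer from γ-32P-ATP onto pG4T, scintillation-counted after acid washes of P81 paper. Syk kinase domain (356-635), 0.035–7.5 ng per reaction, was exposed to compound for 30 minutes at room temperature before a 10-minute, 30° C. reaction with ATP (100 μM stock). Inhibition derived from counts with versus without compound.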

[3] = target: JAK2 (Homo sapiens (Human), UniProt O60674); assay: Inhibition of enzymatic JAK2 kinase activity (TR-FRET); type: biochemical; conditions: read-out: IC50 JAK
Chain of JAK2 (O60674 808-1132): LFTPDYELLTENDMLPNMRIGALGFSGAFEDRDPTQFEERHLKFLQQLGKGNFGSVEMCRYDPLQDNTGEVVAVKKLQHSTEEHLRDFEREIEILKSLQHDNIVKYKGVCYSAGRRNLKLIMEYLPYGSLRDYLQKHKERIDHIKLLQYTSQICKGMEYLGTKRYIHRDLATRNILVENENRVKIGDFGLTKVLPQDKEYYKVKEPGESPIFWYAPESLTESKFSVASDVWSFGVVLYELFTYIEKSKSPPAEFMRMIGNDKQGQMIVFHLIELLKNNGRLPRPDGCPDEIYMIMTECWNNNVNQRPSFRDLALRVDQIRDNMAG
Procedure, shortened: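 TR-FRET read-out (Eu antibody donor, Ulight poly Glu-Tyr acceptor, 665/615 nm ratio) after a 60 min RT kinase reaction with ATP, begun following 30 min compound–enzyme preincubation. Stopped by EDTA; inhibition expressed as 100 minus % activity of positive control.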

O=C(O)CC1CCC(c2ccc(Nc3nc(N4CCCCCC4)nc4cn[nH]c(=O)c34)cc2)CC1 (centres unmarked) [Example 91, 2-(4-(4-((2-(azepan-1-yl)-5-oxo-5,6-dihydropyrimido[4,5-d]pyridazin-4-yl)amino)phenyl)cyclohexyl)acetic acid]
inhibition at 1 µM [1]: 100% | EC50 [1]: 154 nM | IC50 [2]: < 10 nM | IC50 [3]: < 50 nM

CC1CN(c2nc(Nc3ccc(N4CCC(CC(=O)O)CC4)cc3)c3c(=O)[nH]ncc3n2)CC(C)O1 (centres unmarked) [Example 121, 2-(1-(4-((2-(2,6-dimethylmorpholino)-5-oxo-5,6-dihydropyrimido[4,5-d]pyridazin-4-yl)amino)phenyl)piperidin-4-yl)acetic acid]
inhibition at 1 µM [1]: 98% | EC50 [1]: 156 nM | IC50 [2]: < 50 nM | IC50 [3]: < 50 nM

O=C(O)C1CC12CCN(CCOc1ccc(Nc3nc(N4CCCCCC4)nc4cn[nH]c(=O)c34)cc1)CC2 (centres unmarked) [Example 158, 6-(2-(4-((2-(azepan-1-yl)-5-oxo-5,6-dihydropyrimido[4,5-d]pyridazin-4-yl)amino)phenoxy)ethyl)-6-azaspiro[2.5]octane-1-carboxylic acid]
inhibition at 1 µM [1]: 53% | EC50 [1]: 162 nM | IC50 [2]: < 50 nM | IC50 [3]: < 10 nM

O=c1[nH]ncc2nc(N3CCCCCC3)nc(Nc3ccc(N4CCCC(O)C4)nc3)c12 (centres unmarked) [Example 277, 2-(azepan-1-yl)-4-((6-(3-hydroxypiperidin-1-yl)pyridin-3-yl)amino)pyrimido[4,5-d]pyridazin-5(6H)-one]
inhibition at 1 µM [1]: 74% | EC50 [1]: 42 nM | IC50 [2]: < 10 nM | IC50 [3]: < 50 nM

O=c1[nH]ncc2nc(N3CCCCCC3)nc(Nc3ccc4[nH]nnc4c3)c12 [Example 339, 4-((1H-benzo[d][1,2,3]triazol-5-yl)amino)-2-(azepan-1-yl)pyrimido[4,5-d]pyridazin-5(6H)-one]
inhibition at 1 µM [1]: 83% | EC50 [1]: 31 nM | IC50 [2]: < 10 nM | IC50 [3]: < 50 nM

O=C1CN(CCOc2ccc(Nc3nc(N4CCCCCC4)nc4cn[nH]c(=O)c34)cc2)CCN1 [Example 157, 2-(azepan-1-yl)-4-((4-(2-(3-oxopiperazin-1-yl)ethoxy)phenyl)amino) pyrimido[4,5-d]pyridazin-5(6H)-one]
inhibition at 1 µM [1]: 70% | EC50 [1]: 42 nM | IC50 [2]: < 50 nM | IC50 [3]: < 50 nM

CN(C)CCN1CCN(c2ccc(Nc3nc(N4CCCCCC4)nc4cn[nH]c(=O)c34)cc2)CC1 [Example 267, 2-(azepan-1-yl)-4-((4-(4-(2-(dimethylamino)ethyl)piperazin-1-yl)phenyl)amino)pyrimido[4,5-d]pyridazin-5(6H)-one]
inhibition at 1 µM [1]: 90% | EC50 [1]: 21 nM | IC50 [2]: < 10 nM | IC50 [3]: < 10 nM

O=c1[nH]ncc2nc(-c3ccsc3)nc(Nc3ccc(CN4CCNCC4)cc3)c12 [Example 24, 4-(4-(piperazin-1-ylmethyl)phenylamino)-2-(thiophen-3-yl) pyrimido[4,5-d]pyridazin-5(6H)-one hydrochloride]
inhibition at 1 µM [1]: 83% | IC50 [2]: < 10 nM | IC50 [3]: < 100 nM

O=c1[nH]ncc2nc(N3CCCCCC3)nc(Nc3ccc(N(CCO)CCO)cc3)c12 [Example 306, 2-(azepan-1-yl)-4-((4-(bis(2-hydroxyethyl)amino)phenyl)amino) pyrimido[4,5-d]pyridazin-5(6H)-one]
inhibition at 1 µM [1]: 100% | EC50 [1]: 15 nM | IC50 [2]: < 10 nM | IC50 [3]: < 10 nM

CC1(O)CCN(CCc2ccc(Nc3nc(N4CCCCCC4)nc4cn[nH]c(=O)c34)cc2)CC1 [Example 210, 2-(azepan-1-yl)-4-((4-(2-(4-hydroxy-4-methylpiperidin-1-yl)ethyl)phenyl)amino) pyrimido[4,5-d]pyridazin-5(6H)-one]
inhibition at 1 µM [1]: 79% | EC50 [1]: 22 nM | IC50 [2]: < 50 nM | IC50 [3]: < 10 nM

N#CCC1CCN(c2nc(Nc3ccc(N4CCN(CC(=O)O)CC4)cc3)c3c(=O)[nH]ncc3n2)CC1 [Example 162, 2-(4-(4-((2-(4-(cyanomethyl)piperidin-1-yl)-5-oxo-5,6-dihydropyrimido[4,5-d]pyridazin-4-yl)amino)phenyl)piperazin-1-yl)acetic acid]
inhibition at 1 µM [1]: 27% | EC50 [1]: 281 nM | IC50 [2]: < 10 nM | IC50 [3]: < 10 nM

O=c1[nH]ncc2nc(N3CCCCCC3)nc(Nc3ccc(CCN4CCC(O)CC4)cc3)c12 [Example 201, 2-(azepan-1-yl)-4-((4-(2-(4-hydroxypiperidin-1-yl)ethyl)phenyl)amino)pyrimido[4,5-d]pyridazin-5(6H)-one]
inhibition at 1 µM [1]: 88% | EC50 [1]: 31 nM | IC50 [2]: < 10 nM | IC50 [3]: < 10 nM

O=c1[nH]ncc2nc(-c3ccc4c(c3)OCO4)nc(Nc3ccc(CN4CCNCC4)cc3)c12 [Example 33, 2-(benzo[d][1,3]dioxol-5-yl)-4-(4-(piperazin-1-ylmethyl)phenylamino) pyrimido[4,5-d]pyridazin-5(6H)-one hydrochloride]
inhibition at 1 µM [1]: 58% | IC50 [2]: < 50 nM | IC50 [3]: > 100 nM

CC1(O)CCN(CCOc2ccc(Nc3nc(N4CCCCCC4)nc4cn[nH]c(=O)c34)cc2)CC1 [Example 184, 2-(azepan-1-yl)-4-((4-(2-(4-hydroxy-4-methylpiperidin-1-yl)ethoxy)phenyl)amino)pyrimido[4,5-d]pyridazin-5(6H)-one]
inhibition at 1 µM [1]: 65% | EC50 [1]: 33 nM | IC50 [2]: < 10 nM | IC50 [3]: < 10 nM

CCN1CCN(c2ccc(Nc3nc(N4CCC(CC#N)CC4)nc4cn[nH]c(=O)c34)cc2)CC1=O [Example 178, 2-(1-(4-((4-(4-ethyl-3-oxopiperazin-1-yl)phenyl)amino)-5-oxo-5,6-dihydropyrimido[4,5-d]pyridazin-2-yl)piperidin-4-yl)acetonitrile]
inhibition at 1 µM [1]: 73% | EC50 [1]: 39 nM | IC50 [2]: < 10 nM | IC50 [3]: < 10 nM

CN(c1nc(Nc2ccc(N3CCC(CC(=O)O)CC3)cc2)c2c(=O)[nH]ncc2n1)C1CCCCC1 [Example 161, 2-(1-(4-((2-(cyclohexyl(methyl)amino)-5-oxo-5,6-dihydropyrimido[4,5-d]pyridazin-4-yl)amino)phenyl)piperidin-4-yl)acetic acid]
inhibition at 1 µM [1]: 74% | EC50 [1]: 39 nM | IC50 [2]: < 50 nM | IC50 [3]: < 10 nM

O=c1[nH]ncc2nc(N3CCCCC3)nc(Nc3ccc(OCCN4CCC(O)CC4)cc3)c12 [Example 183, 4-((4-(2-(4-hydroxypiperidin-1-yl)ethoxy)phenyl)amino)-2-(piperidin-1-yl)pyrimido[4,5-d]pyridazin-5(6H)-one]
inhibition at 1 µM [1]: 41% | EC50 [1]: 83 nM | IC50 [2]: < 10 nM | IC50 [3]: < 50 nM

N#CCC(=O)N1CCN(c2ccc(Nc3nc(N4CCCCCC4)nc4cn[nH]c(=O)c34)cc2)CC1 [Example 215, 3-(4-(4-((2-(azepan-1-yl)-5-oxo-5,6-dihydropyrimido[4,5-d]pyridazin-4-yl)amino)phenyl)piperazin-1-yl)-3-oxopropanenitrile]
inhibition at 1 µM [1]: 96% | EC50 [1]: 12 nM | IC50 [2]: < 10 nM | IC50 [3]: < 10 nM

O=C(O)CCc1ccc(Nc2nc(N3CCCCCC3)nc3cn[nH]c(=O)c23)cc1 [Example 304, 3-(4-((2-(azepan-1-yl)-5-oxo-5,6-dihydropyrimido[4,5-d]pyridazin-4-yl)amino)phenyl)propanoic acid]
inhibition at 1 µM [1]: 70% | EC50 [1]: 55 nM | IC50 [2]: < 10 nM | IC50 [3]: < 10 nM
